Laboratory results published in ChEMBL document CHEMBL5252512, “Recent Progress in the Development of HIV-1 Protease Inhibitors for the Treatment of HIV/AIDS” (J Med Chem, 2016).

Assays:
[1] = AUC in rat at 10 mg/kg, po; type: ADME, organism-based; set-up: dose 10 mg/kg, route po; settings: in vivo
[2] = Clearance in rat at 2 mg/kg, iv; type: ADME, organism-based; settings: in vivo
[3] = Half life in dog at 1 mg/kg, iv; type: ADME, organism-based, Canis lupus familiaris; settings: in vivo
[4] = Half life in rat at 1 mg/kg, iv; type: ADME, organism-based; settings: in vivo
[5] = Clearance in dog at 1 mg/kg, iv; type: ADME, organism-based, Canis lupus familiaris; settings: in vivo
[6] = biological target: T1, Human immunodeficiency virus type 1 protease (Human immunodeficiency virus 1, UniProt Q72874); test: Binding affinity to HIV1 recombinant wild type protease expressed in Escherichia coli BL21(DE3) assessed as inhibition constant
[7] = system: Human immunodeficiency virus 1; test: Antiviral activity against HIV1 LAI infected in human MT2 cells assessed as inhibition of virus-induced cytopathic effect by MTT assay; type: functional, organism-based; settings: Human immunodeficiency virus 1, LAI
[8] = system: Human immunodeficiency virus 1; test: Ratio of EC50 for antiviral activity against HIV1-B to EC50 for antiviral activity against wild type HIV1 ERS104pre; type: functional
[9] = system: Human immunodeficiency virus 1; test: Ratio of EC50 for antiviral activity against HIV1-JSL to EC50 for antiviral activity against wild type HIV1 ERS104pre; type: functional
[10] = biological target: T1, Human immunodeficiency virus type 1 protease; test: Binding affinity to HIV1 protease assessed as inhibition constant
[11] = system: Human immunodeficiency virus 1; test: Antiviral activity against darunavir-resistant HIV1 10P infected in phytohemagglutinin-activated human PBMC cells assessed as inhibition of virus-induced cytopathic effect measured after 7 days by MTT assay; type: functional, organism-based; settings: Human immunodeficiency virus 1, 10P, 168 h
[12] = system: Human immunodeficiency virus 1; test: Antiviral activity against multidrug-resistant HIV1-G infected in phytohemagglutinin-activated human PBMC cells assessed as inhibition of virus-induced cytopathic effect measured after 7 days by MTT assay; type: functional, organism-based; settings: Human immunodeficiency virus 1, G, 168 h
[13] = system: Human immunodeficiency virus 1; test: Antiviral activity against multidrug-resistant HIV1-C infected in phytohemagglutinin-activated human PBMC cells assessed as inhibition of virus-induced cytopathic effect measured after 7 days by MTT assay; type: functional, organism-based; settings: Human immunodeficiency virus 1, C, 168 h
[14] = system: Human immunodeficiency virus 1; test: Ratio of EC50 for antiviral activity against HIV1-MM to EC50 for antiviral activity against wild type HIV1 ERS104pre; type: functional
[15] = system: Human immunodeficiency virus 1; test: Ratio of EC50 for antiviral activity against darunavir-resistant HIV1 10P to EC50 for antiviral activity against wild type HIV1 ERS104pre; type: functional
[16] = system: Human immunodeficiency virus 1; test: Antiviral activity against multidrug-resistant HIV1-MM infected in phytohemagglutinin-activated human PBMC cells assessed as inhibition of virus-induced cytopathic effect measured after 7 days by MTT assay; type: functional, organism-based; settings: Human immunodeficiency virus 1, MM, 168 h
[17] = system: Human immunodeficiency virus 1; test: Antiviral activity against multidrug-resistant HIV1-B infected in phytohemagglutinin-activated human PBMC cells assessed as inhibition of virus-induced cytopathic effect measured after 7 days by MTT assay; type: functional, organism-based; settings: Human immunodeficiency virus 1, B, 168 h
[18] = system: Human immunodeficiency virus 1; test: Antiviral activity against multidrug-resistant HIV1-TM infected in phytohemagglutinin-activated human PBMC cells assessed as inhibition of virus-induced cytopathic effect measured after 7 days by MTT assay; type: functional, organism-based; settings: Human immunodeficiency virus 1, TM, 168 h
[19] = system: Human immunodeficiency virus 1; test: Ratio of EC50 for antiviral activity against HIV1-C to EC50 for antiviral activity against wild type HIV1 ERS104pre; type: functional
[20] = system: Human immunodeficiency virus 1; test: Ratio of EC50 for antiviral activity against HIV1-TM to EC50 for antiviral activity against wild type HIV1 ERS104pre; type: functional
[21] = system: Human immunodeficiency virus 1; test: Antiviral activity against wild type HIV1 ERS104pre infected in human PBMC cells assessed as inhibition of virus-induced cytopathic effect measured after 7 days by MTT assay; type: functional, organism-based; settings: Human immunodeficiency virus 1, ERS104pre, 168 h
[22] = system: Human immunodeficiency virus 1; test: Ratio of EC50 for antiviral activity against darunavir-resistant HIV1 20P to EC50 for antiviral activity against wild type HIV1 ERS104pre; type: functional
[23] = system: Human immunodeficiency virus 1; test: Ratio of EC50 for antiviral activity against HIV1-G to EC50 for antiviral activity against wild type HIV1 ERS104pre; type: functional
[24] = system: Human immunodeficiency virus 1; test: Antiviral activity against darunavir-resistant HIV1 20P infected in phytohemagglutinin-activated human PBMC cells assessed as inhibition of virus-induced cytopathic effect measured after 7 days by MTT assay; type: functional, organism-based; settings: Human immunodeficiency virus 1, 20P, 168 h
[25] = system: Human immunodeficiency virus 1; test: Antiviral activity against multidrug-resistant HIV1-JSL infected in phytohemagglutinin-activated human PBMC cells assessed as inhibition of virus-induced cytopathic effect measured after 7 days by MTT assay; type: functional, organism-based; settings: Human immunodeficiency virus 1, JSL, 168 h
[26] = system: Human immunodeficiency virus 1; test: Antiviral activity against wild type HIV1 r13205 infected in human MT4 cells expressing LTR and EGFP assessed as inhibition of virus-induced cytopathic effect by fluorescence microscopic analysis; type: functional, organism-based; settings: Human immunodeficiency virus 1, r13205, MT4
[27] = Lipophilicity, logD of the compound in Octanol/buffer by shake-flask method; type: physicochemical
[28] = system: Human immunodeficiency virus 1; test: Ratio of EC50 for antiviral activity against HIV1-T13436 to EC50 for antiviral activity against wild type HIV1 r13205; type: functional
[29] = system: Human immunodeficiency virus 1; test: Ratio of EC50 for antiviral activity against HIV1-T13717 to EC50 for antiviral activity against wild type HIV1 r13205; type: functional
[30] = Lipophilicity, logP of the compound in Octanol/water by shake-flask method; type: physicochemical
[31] = system: Human immunodeficiency virus 1; test: Antiviral activity against HIV1 T13717 infected in human MT4 cells expressing LTR and EGFP assessed as inhibition of virus-induced cytopathic effect by fluorescence microscopic analysis; type: functional, organism-based; settings: Human immunodeficiency virus 1, T13717, MT4
[32] = system: Human immunodeficiency virus 1; test: Ratio of EC50 for antiviral activity against HIV1-T13572 to EC50 for antiviral activity against wild type HIV1 r13205; type: functional
[33] = system: Human immunodeficiency virus 1; test: Antiviral activity against HIV1 T13436 infected in human MT4 cells expressing LTR and EGFP assessed as inhibition of virus-induced cytopathic effect by fluorescence microscopic analysis; type: functional, organism-based; settings: Human immunodeficiency virus 1, T13436, MT4
[34] = system: Human immunodeficiency virus 1; test: Antiviral activity against HIV1 T20760 infected in human MT4 cells expressing LTR and EGFP assessed as inhibition of virus-induced cytopathic effect by fluorescence microscopic analysis; type: functional, organism-based; settings: Human immunodeficiency virus 1, T20760, MT4
[35] = system: Human immunodeficiency virus 1; test: Ratio of EC50 for antiviral activity against HIV1-T21217 to EC50 for antiviral activity against wild type HIV1 r13205; type: functional
[36] = system: Human immunodeficiency virus 1; test: Antiviral activity against HIV1 T13632 infected in human MT4 cells expressing LTR and EGFP assessed as inhibition of virus-induced cytopathic effect by fluorescence microscopic analysis; type: functional, organism-based; settings: Human immunodeficiency virus 1, T13632, MT4
[37] = system: Human immunodeficiency virus 1; test: Ratio of EC50 for antiviral activity against HIV1-T20760 to EC50 for antiviral activity against wild type HIV1 r13205; type: functional
[38] = system: Human immunodeficiency virus 1; test: Ratio of EC50 for antiviral activity against HIV1-T21055 to EC50 for antiviral activity against wild type HIV1 r13205; type: functional
[39] = system: Human immunodeficiency virus 1; test: Ratio of EC50 for antiviral activity against HIV1-T13632 to EC50 for antiviral activity against wild type HIV1 r13205; type: functional
[40] = system: Human immunodeficiency virus 1; test: Antiviral activity against HIV1 T13572 infected in human MT4 cells expressing LTR and EGFP assessed as inhibition of virus-induced cytopathic effect by fluorescence microscopic analysis; type: functional, organism-based; settings: Human immunodeficiency virus 1, T13572, MT4
[41] = system: Human immunodeficiency virus 1; test: Antiviral activity against HIV1 T21217 infected in human MT4 cells expressing LTR and EGFP assessed as inhibition of virus-induced cytopathic effect by fluorescence microscopic analysis; type: functional, organism-based; settings: Human immunodeficiency virus 1, T21217, MT4
[42] = system: Human immunodeficiency virus 1; test: Antiviral activity against HIV1 T21055 infected in human MT4 cells expressing LTR and EGFP assessed as inhibition of virus-induced cytopathic effect by fluorescence microscopic analysis; type: functional, organism-based; settings: Human immunodeficiency virus 1, T21055, MT4
[43] = Apparent permeability in rat astrocytes/rat pericytes/monkey endothelial cells triple cell co-culture system incubated for 30 mins by spectrophotometric analysis; type: ADME, cell-based

Compound	Ratio EC50 [8]	Ratio EC50 [9]	EC50 [11]	EC50 [12]	EC50 [13]	Ratio EC50 [14]	Ratio EC50 [15]	EC50 [16]	EC50 [17]	EC50 [18]	Ratio EC50 [19]	Ratio EC50 [20]	EC50 [21]	Ratio EC50 [22]	Ratio EC50 [23]	EC50 [24]	EC50 [25]	EC50 [26]	EC50 [31]	EC50 [33]	also measured
CC[C@@H](CCC[C@@H](CO)N(CCC(C)C)S(=O)(=O)c1ccc(N)cc1)NC(=O)[C@@H](NC(=O)OC)C(c1ccccc1)c1ccccc1																					AUC [1]: 1.17 µM·h; clearance [2]: 48.5 mL/min/kg; half-life [3]: 7.4 h; half-life [4]: 2.13 h; clearance [5]: 10.1 mL/min/kg
CC(C)CN(C[C@@H](O)[C@H](Cc1ccccc1)NC(=O)O[C@H]1CO[C@H]2OCC[C@H]21)S(=O)(=O)c1ccc(C(N)=O)cc1																					Ki [6]: 0.0089 nM; EC50 [7]: 93 nM
COc1ccc(S(=O)(=O)N(CC(C)C)C[C@@H](O)[C@H](Cc2ccccc2)NC(=O)O[C@H]2CO[C@H]3O[C@@H]4OCC[C@@H]4[C@H]32)cc1	6	4	5.6 nM	2.6 nM	0.8 nM	4	9	2.5 nM	3.4 nM	2.1 nM	1	4	0.6 nM	50	4	30 nM	2.5 nM				Ki [10]: 0.0059 nM
CC(C)CN(C[C@@H](O)[C@H](Cc1ccccc1)NC(=O)O[C@H]1CO[C@H]2OCC[C@H]21)S(=O)(=O)c1ccc(C(=O)O)cc1																					Ki [6]: 0.0127 nM; EC50 [7]: > 10000 nM
CC(C)CN(C[C@@H](O)[C@H](Cc1ccccc1)NC(=O)O[C@H]1CO[C@H]2OCC[C@H]21)S(=O)(=O)c1ccc(N)cc1	7	6	43.4 nM	7 nM	5 nM	3	11	10 nM	21 nM	4.3 nM	2	1	3.8 nM	64	2	255 nM	> 25 nM	22 nM	670 nM	49 nM	logD [27]: -1.03; Ratio EC50 [28]: 2.2; Ratio EC50 [29]: 30; logP [30]: -0.63; Ratio EC50 [32]: 11; EC50 [34]: 39 nM; Ratio EC50 [35]: 3.8; EC50 [36]: 624 nM; Ratio EC50 [37]: 1.8; Ratio EC50 [38]: 5.5; Ratio EC50 [39]: 28; EC50 [40]: 234 nM; EC50 [41]: 84 nM; EC50 [42]: 122 nM
COC(=O)N[C@H](C(=O)N[C@@H](Cc1ccccc1)[C@@H](O)CN(Cc1ccc(-c2ccccn2)cc1)NC(=O)[C@@H](NC(=O)OC)C(C)(C)C)C(C)(C)C [ATAZANAVIR]	174	>78	323 nM	19.4 nM	38.8 nM	20	77	81 nM	450 nM	56 nM	14	24	2.1 nM	>370	7	> 1000 nM	> 211 nM				
Cn1c(=O)c2c(ncn2C)n(C)c1=O [CAFFEINE]																					Papp at 0.5 h [43]: 100 ×10⁻⁶ cm/s
Cc1cccc(C)c1OCC(=O)N[C@@H](Cc1ccccc1)[C@@H](O)C[C@H](Cc1ccccc1)NC(=O)[C@H](C(C)C)N1CCCNC1=O [LOPINAVIR]			> 1000 nM	> 160 nM	> 436 nM				> 300 nM				7 nM			> 1000 nM	> 700 nM	28 nM	1900 nM	263 nM	EC50 [34]: 112 nM; EC50 [36]: 1600 nM; EC50 [40]: 511 nM; EC50 [41]: 198 nM; EC50 [42]: 426 nM
CC(C)CN(C[C@@H](O)[C@H](Cc1ccccc1)NC(=O)O[C@H]1CO[C@H]2OCC[C@H]21)S(=O)(=O)c1ccc2sc(NC3CCN(C4CCCC4)CC3)nc2c1																		26 nM	68 nM	5.1 nM	Ratio EC50 [28]: 0.2; Ratio EC50 [29]: 2.6; Ratio EC50 [32]: 0.058; EC50 [34]: 65 nM; Ratio EC50 [35]: 12; EC50 [36]: 42 nM; Ratio EC50 [37]: 2.5; Ratio EC50 [38]: 12; Ratio EC50 [39]: 1.6; EC50 [40]: 1.5 nM; EC50 [41]: 312 nM; EC50 [42]: 308 nM
